In brackets after ≈: the same amount, converted by molar mass. Entries after “also recorded” stand apart in the source; their conditions may differ. Read-outs that look alike come from different tables or passages of the source.
Legend:
MCF7 breast cancer cells = experiment: MTT assay, MCF7; details: for IC50 / cytotoxicity at 100 µg/mL: Homo sapiens, MCF7, 72 h; for IC50: read-out: IC50 MCF7
Description: (§1) All of the following steps were done in a sterile Laminar flow class II biosafety cabinet (Baker, SG406INT, Sanford, ME, USA). DMEM was used as a suspension medium for breast cancer (MCF7), colorectal cancer (HCT116), prostate cancer (PC3), liver cancer (HePG2), pancreatic cancer (PACA2) and lung cancer (A549), while normal cell line (BJ1) was suspended in DMEM-F12 medium. The selected cell lines were purchased from American Type Culture Collection (ATCC). The media were supplemented with a 1% antimycotic-antibiotic mixture (10,000 µg/ml streptomycin sulfate, 25 µg/ml Amphotericin B, and 10,000 U/ml Potassium Penicillin) and 1% L-glutamine. 10 × 10^4cells/well were seeded in 96 well microtiter plates and incubated for 24 h at 37 ℃ under 5% carbon dioxide using a water-jacketed Carbon dioxide incubator (Sheldon, SCO5A, OR, USA). […] After the incubation time of 72 h, the medium was removed. Afterward, 40 µl MTT salt ([…]) was added to each well and kept for 4 h under the same conditions of 37 °C and 5% carbon dioxide. Finally, 200 μl of 10% Sodium dodecyl sulfate (SDS) in deionized water was added to each well and incubated overnight at 37 °C. The step of SDS addition was done to stop the reaction and dissolve the formed formazan crystals. The absorbance was then measured at a wavelength of 595 nm and the reference wavelength was set at 620 nm using a microplate multi-well reader (Bio-Rad Laboratories Inc., model 3356, California, USA). […] A statistical significance analysis was determined between the samples and the negative control using an independent t-test by SPSS 11 program. Dimethyl sulfoxide (DMSO) was the vehicle that dissolved our synthesized compounds and its concentration in the cells was less than 0.2%. IC50 values were calculated using the GraphPad Prism 6 program. The degree of selectivity of the synthetic compounds was expressed as SI = IC50 of a pure compound in a normal cell line/IC50 of the same pure compound in the cancer cell line, where IC50 is the concentration of the compound required to kill 50% of the cells.

A549 lung cancer cells = experiment: MTT assay, A549; details: Homo sapiens, A549, 72 h; for IC50: read-out: IC50 A549
Description: as §1

[1] = test system: PACA2 pancreatic cancer cells; experiment: MTT assay, PACA2; details: Homo sapiens, PaCa-2, 72 h; for cytotoxicity at 100 µg/mL: read-out: MTT cell proliferation mortality assay (%) PACA2
Description: as §1

caspase 8 = experiment: ELISA caspase 8 in MCF7 cells; format: cell-based, human; details: MCF7 cells treated with IC50; untreated control 3.99
Description: (§2) Elisa assay was used to determine the concentrations of Human caspases-3, -8, Bax, and Bcl2 in PACA2- and A549-treated cells. Also, the concentrations of caspase-8, Bax, and Bcl2 in MCF7-treated cells were detected. The procedures were followed up according to the instructions described in the following kits; Invitrogen human Caspase-3 Elisa Kit, Catalog KHO1091, DRG® human Caspase-8 ELISA Kit, Catalog (EIA-4863), Human Bax ELISA Kit (ab199080) and Human Bcl-2 ELISA Kit (ab119506) respectively. Shortly, the protocol described in the above kits was as followed; at the beginning, all the reagents, samples and standards were prepared. 100 μl of samples or standard were micro pipetted to each well of micro-well strip and kept at room temperature for 2 h. After washing the micro-well strips three times with washing buffer, the prepared antibody (anti-rabbit-IgG-HRP) at a concentration of 100 μl was added to each well at room temperature for 1 h. Then, the micro-well strips were washed again three times. Afterward, the prepared tetramethyl-benzidine (TMB) solution (100 μl) was added to the micro-well strips and kept for 10 min. At last, about 50 μl of stop solution was pipetted to each well to inactivate the enzyme completely. The absorbance of all samples was measured at a wavelength of 460 nm and compared to that of the standard. Curve fitting software was used to plot a standard curve and the concentrations for the unknown samples were measured from the standard curve.

BAX [2] = experiment: ELISA BAX in MCF7 cells; format: cell-based, human; details: MCF7 cells treated with IC50; untreated control 4.92
Description: as §2

Bcl2 = experiment: ELISA Bcl2 in MCF7 cells; format: cell-based, human; details: MCF7 cells treated with IC50; untreated control 14.37
Description: as §2

P53 = experiment: RT-qPCR P53 mRNA in MCF7; format: cell-based, human; details: MCF7, vs negative control
Protocol: (§3) All of the extractions were conducted on ice with ice-cold reagents. Total RNA from the different cell lines was isolated using Trizol (Invitrogen; Life Technologies, USA) according to the method of Sthoeger et al.. The 260:280 ratios were measured to determine RNA quality after the isolation method was completed according to the manufacturer’s instructions. A high-capacity cDNA reverse transcription kit was used to produce complementary DNA (cDNA) (Applied Biosystems, USA). […] The relative gene expression method (i.e., ΔΔCT) was used to analyze the real-time PCR data, as explained in Applied Biosystem User Bulletin No. 2. Each sample and gene were normalized using the β-actin gene.

BAX [3] = experiment: RT-qPCR BAX mRNA in MCF7; format: cell-based, human; details: MCF7, vs negative control
Protocol: as §3

Bcl-2 = experiment: RT-qPCR Bcl-2 mRNA in MCF7; format: cell-based, human; details: MCF7, vs negative control
Protocol: as §3

CDK4 = experiment: RT-qPCR CDK4 mRNA in MCF7; format: cell-based, human; details: MCF7, vs negative control
Protocol: as §3

IL-8 = experiment: RT-qPCR IL-8 mRNA in MCF7; format: cell-based, human; details: MCF7, vs negative control
Protocol: as §3

DR4 = experiment: RT-qPCR DR4 mRNA in MCF7; format: cell-based, human; details: MCF7, vs negative control
Protocol: as §3

DR5 = experiment: RT-qPCR DR5 mRNA in MCF7; format: cell-based, human; details: MCF7, vs negative control
Protocol: as §3

[4] = test system: HCT116 colorectal cancer cells; experiment: MTT assay, HCT116; details: for IC50 / cytotoxicity at 100 µg/mL: Homo sapiens, HCT-116, 72 h; for IC50: read-out: IC50 HCT116
Description: as §1

[5] = test system: PC3 prostate cancer cells; experiment: MTT assay, PC3; details: Homo sapiens, 72 h; for IC50: read-out: IC50 PC3
Description: as §1

HePG2 liver cancer cells = experiment: MTT assay, HePG2; details: Homo sapiens, HepG2, 72 h; for IC50: read-out: IC50 HePG2; for cytotoxicity at 100 µg/mL: read-out: MTT cell proliferation mortality assay (%) HePG2
Description: as §1

[6] = MTT assay, normal cell line BJ1; format: cell-based; details: human, at 100 μg/ml, read-out: MTT cell proliferation mortality assay (%) BJ1
Description: as §1

[7] = read-out: MTT cell proliferation mortality assay (%) MCF7
[8] = read-out: MTT cell proliferation mortality assay (%) A549, at 100 μg/ml, 72 h
[9] = read-out: MTT cell proliferation mortality assay (%) HCT116, at 100 μg/ml, 72 h

SMILES | IC50 (MCF7 breast cancer cells) [µg/mL] | cytotoxicity at 100 µg/mL (MCF7 breast cancer cells; [7]) [%] | cytotoxicity at 100 µg/mL (A549 lung cancer cells; [8]) [%] | cytotoxicity at 100 µg/mL [1] [%] | P53 mRNA level (P53) | BAX mRNA level (BAX [3]) | Bcl-2 mRNA level (Bcl-2) | CDK4 mRNA level (CDK4) | IL-8 mRNA level (IL-8) | DR4 mRNA level (DR4) | DR5 mRNA level (DR5) | IC50 (A549 lung cancer cells) [µg/mL] | IC50 [4] [µg/mL] | IC50 [5] [µg/mL] | IC50 (HePG2 liver cancer cells) [µg/mL] | cytotoxicity at 100 µg/mL (HePG2 liver cancer cells) [%] | also measured
COc1ccc(-c2c(Cl)n(-c3ccc(Cl)cc3Cl)c3ncnc(N4CCN(C)CC4)c23)cc1OC [Compound 16b, 6-chloro-7-(2,4-dichlorophenyl)-5-(3,4-dimethoxyphenyl)-4-(4-methylpiperazin-1-yl)-7H-pyrrolo[2,3-d]pyrimidine] | 5.7 ± 0.9 (≈ 10.7 µM) | 100 | 100 | 100 | up-regulated; also recorded: significantly increased | up-regulated | down-regulated | lowered | lowered | increased | increased | – | – | – | – | – | caspase 8 level (ELISA) (caspase 8): 14.72 pg/mL; BAX level (ELISA) (BAX [2]): 13.25 pg/mL; Bcl2 level (ELISA) (Bcl2): 4.25 pg/mL
COc1ccc(-c2c(Cl)n(-c3ccc(Cl)cc3Cl)c3ncnc(Cl)c23)cc1OC [Compound 4b, 4,6-dichloro-7-(2,4-dichlorophenyl)-5-(3,4-dimethoxyphenyl)-7H-pyrrolo[2,3-d]pyrimidine] | 45.8 ± 1 (≈ 97.6 µM) | 90.3 ± 4.9 | 100 | 100 | – | – | – | – | – | – | – | 17.5 ± 0.4 (≈ 37.3 µM) | 58.4 ± 0.7 (≈ 124 µM) | 28.5 ± 0.8 (≈ 60.7 µM) | 84.3 ± 0.7 (≈ 180 µM) | 84.3 ± 0.9 | cytotoxicity (MCF7 breast cancer cells; read-out: MTT cell proliferation mortality assay (%) MCF7, at 100 μg/ml, 72 h): 80 to 95%; cytotoxicity at 100 µg/mL [4, 9]: 80 to 90%; cytotoxicity [4, 9]: 90.2 ± 1%; cytotoxicity at 100 µg/mL ([5]; read-out: MTT cell proliferation mortality assay (%) PC3, at 100 μg/ml, 72 h): 100%; cytotoxicity at 72 h, 100 μg/ml [6]: 22.5 ± 0.3%
COc1cccc2c1C(=O)c1c(O)c3c(c(O)c1C2=O)C[C@@](O)(C(=O)CO)C[C@@H]3O[C@H]1C[C@H](N)[C@H](O)[C@H](C)O1 [Dox, Doxorubicin, reference compound] | 26.1 ± 0.1 (≈ 48 µM) | 100 | – | 100 | up-regulated | up-regulated | down-regulated | lowered | lowered | increased | increased | 28.3 ± 1.3 (≈ 52.1 µM) | 37.6 ± 0.8 (≈ 69.2 µM) | 23.8 ± 0.2 (≈ 43.8 µM) | 21.6 ± 0.8 (≈ 39.7 µM) | 100 | cytotoxicity at 100 µg/mL (A549 lung cancer cells; read-out: MTT cell proliferation mortality assay (%) A549): 100%; cytotoxicity at 100 µg/mL ([4]; read-out: MTT cell proliferation mortality assay (%) HCT116): 100%; cytotoxicity at 100 µg/mL ([5]; read-out: MTT cell proliferation mortality assay (%) PC3): 100%; IC50 ([1]; read-out: IC50 PACA2): 28.3 ± 0.4 µg/mL (≈ 52.1 µM)
